Values of other authors, collected in US20040137049A1, “Amphotericin b aqueous composition” (priority 2001, published 2004).
≈ marks a conversion by molar mass, not a printed value.

Conditions: in methanol

## C[C@@H]1[C@H](O)[C@@H](C)/C=C/C=C/C=C/C=C/C=C/C=C/C=C/[C@H](O[C@@H]2O[C@H](C)[C@@H](O)[C@H](N)[C@@H]2O)C[C@@H]2O[C@](O)(C[C@@H](O)C[C@@H](O)[C@H](O)CC[C@@H](O)C[C@@H](O)CC(=O)O[C@H]1C)C[C@H](O)[C@H]2C(=O)O [Amphotericin B]
  Solubility: 100 µg/mL (≈ 108 µM)
